Data published in patent US8158621B2, “Methods of treating or preventing autoimmune diseases with 2,4-pyrimidinediamine compounds” (Rigel Pharmaceuticals, Inc., priority 2002, dated 2012).
Like-named read-outs stand apart in the source and are kept apart here.

Test system: Human Jurkat T-cells (clone N)
Experiment: Jurkat T-cell activation (anti-TCR, CD69 upregulation)
Type: cell-based
Method in brief: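 Readout is CD69 upregulation by flow cytometry (anti-CD69-APC, 20 min at 4 °C) after 20 h anti-TCR (C305, 500 ng/ml) stimulation at 37 °C.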

| Compound | IC50 [µM] | IC50 (Homo sapiens, Jurkat) [µM] |
| --- | --- | --- |
| O=C(COc1cccc(Nc2ncc(F)c(Nc3ccc4c(c3)OCCO4)n2)c1)NCC(O)CO (stereo not drawn) [Compound R926782] | 1.22 | – |
| O=C(COc1cccc(Nc2ncc(F)c(Nc3ccc4c(c3)OCCO4)n2)c1)NC(CO)CO [Compound R926784] | 2.38 | – |
| O=C(NC(CO)CO)c1cc2cc(Nc3ncc(F)c(Nc4ccc5c(c4)OCCO5)n3)ccc2o1 [Compound R926785] | 2.58 | – |
| O=C1OCc2ccc(Nc3ncc(F)c(Nc4ccc5c(c4)OCCO5)n3)cc21 [Compound R926786] | 7.36 | – |
| CC(=O)Nc1cccc(OCCCNc2ncc(F)c(Nc3ccc4c(c3)OCCO4)n2)c1 [Compound R926787] | – | > 10 |
| Fc1cnc(Nc2ccc(-n3cnc(Cl)c3Cl)cc2)nc1Nc1ccc2c(c1)OCCO2 [Compound R926788] | – | > 10 |
| COc1ccc(Nc2ncc(F)c(Nc3ccc4c(c3)OCCO4)n2)c(OC)c1 [Compound R926789] | – | > 10 |
| CC(C)c1ccc(Nc2ncc(F)c(Nc3ccc4c(c3)OCCO4)n2)cc1 [Compound R926790] | – | > 10 |
| Cc1cc(Nc2ncc(F)c(Nc3ccc4c(c3)OCCO4)n2)c(C)cc1O [Compound R926792] | – | 9.97 |
| CCOC(=O)COc1cccc(Nc2ncc(F)c(Nc3cc(OC)cc(OC)c3)n2)c1 [Compound R926795] | > 10 | – |
| CNC(=O)COc1cccc(Nc2ncc(F)c(Nc3cc(OC)cc(OC)c3)n2)c1 [Compound R926796] | 4.21 | – |
| CCOC(=O)COc1cccc(Nc2ncc(C(=O)OCC)c(Nc3ccc4c(c3)OC(F)(F)C(F)(F)O4)n2)c1 [Compound R926799] | > 10 | – |
| CCOC(=O)c1cnc(Nc2cccc(OCC(=O)NC)c2)nc1Nc1ccc2c(c1)OCCO2 [Compound R926800] | > 10 | – |
| CCOC(=O)c1cnc(Nc2cccc(OCC(=O)NC)c2)nc1Nc1cc(OC)cc(OC)c1 [Compound R926801] | > 10 | – |
| COc1cc(Nc2nc(Nc3cccc(O)c3)ncc2F)cc(OC)c1 [Compound R926802] | – | 5.91 |
| CCOC(=O)c1cc2cccc(Nc3ncc(F)c(Nc4cc(OC)cc(OC)c4)n3)c2[nH]1 [Compound R926803] | – | > 10 |
| CCOC(=O)COc1cccc(Nc2nc(Nc3cc(OC)cc(OC)c3)ncc2F)c1 [Compound R926804] | > 10 | – |
| Fc1cnc(Nc2cccc(C(F)(F)F)c2)nc1Nc1ccc2c(c1)OCCO2 [Compound R926805] | > 10 | – |
| CCOC(=O)COc1cccc(Nc2ncc(F)c(Nc3ccc(-n4cnc(Cl)c4Cl)cc3)n2)c1 [Compound R926809] | > 10 | – |
| CNC(=O)COc1cccc(Nc2nc(Nc3cc(OC)cc(OC)c3)ncc2F)c1 [Compound R926810] | 5.07 | – |
| O=C(COc1cccc(Nc2ncc(F)c(Nc3ccc4c(c3)OCCO4)n2)c1)NCCOC(=O)CCCCC1SCC2NC(=O)NC21 (stereo not drawn) [Compound R926811] | 1.28 | – |
| CNC(=O)COc1cccc(Nc2ncc(F)c(Nc3ccc(-n4cnc(Cl)c4Cl)cc3)n2)c1 [Compound R926812] | 6.76 | – |
| CNC(=O)c1cc2cccc(Nc3ncc(F)c(Nc4ccc5c(c4)OCCO5)n3)c2[nH]1 [Compound R926815] | > 10 | – |
| CNC(=O)COc1cccc(Nc2ncc(F)c(Nc3ccc4c(c3)OCCO4)n2)c1 [Compound R926816] | 0.739 | – |
| CNC(=O)COc1cccc(Nc2ncc(F)c(Nc3ccc4c(c3)OCCO4)n2)c1 [Compound R926826] | 3.73 | – |
| CCOc1ccc(Nc2nc(Nc3cccc(OCC(=O)NC)c3)ncc2F)cc1 [Compound R926827] | 2.14 | – |

| Compound | IC50 [µM] | IC50 (Homo sapiens, Jurkat) [µM] |
| --- | --- | --- |
| CNC(=O)COc1cc(Nc2ncc(F)c(Nc3ccc4c(c3)OCCO4)n2)ccc1OC [Compound R926828] | 1.01 | – |
| CNC(=O)COc1cc(Nc2ncc(F)c(Nc3cccc(O)c3)n2)ccc1OC [Compound R926829] | 3.1 | – |
| CC(C)NC(=O)COc1cccc(Nc2ncc(F)c(Nc3ccc4c(c3)OCCO4)n2)c1 [Compound R926830] | 4.16 | – |
| Oc1cccc(Nc2nc(Nc3cccc(-c4cnco4)c3)ncc2F)c1 [Compound R926831] | – | 1.27 |
| CNC(=O)COc1cccc(Nc2ncc(F)c(Nc3cccc(Cl)c3)n2)c1 [Compound R926832] | 2.99 | – |
| CNC(=O)COc1cccc(Nc2ncc(F)c(Nc3cc(OC)cc(C(F)(F)F)c3)n2)c1 [Compound R926833] | 11.8 | – |
| CNC(=O)COc1cccc(Nc2ncc(F)c(Nc3ccc(OC)c(O)c3)n2)c1 [Compound R926834] | 2.57 | – |
| CNC(=O)COc1cccc(Nc2ncc(F)c(Nc3ccc(OC)c(C(F)(F)F)c3)n2)c1 [Compound R926835] | 3.58 | – |
| OB(O)c1cccc(Nc2ncc(F)c(Nc3cccc(B(O)O)c3)n2)c1 [Compound R926836] | 14.5 | – |
| OB(O)c1cccc(Nc2ncc(F)c(Nc3ccc4c(c3)OCCO4)n2)c1 [Compound R926837] | > 10 | – |
| CNC(=O)COc1cccc(Nc2ncc(F)c(Nc3ccc(F)c(C(F)(F)F)c3)n2)c1 [Compound R926838] | 10.7 | – |
| CNC(=O)COc1cccc(Nc2ncc(F)c(Nc3ccc(C)c(Cl)c3)n2)c1 [Compound R926839] | 2.48 | – |
| CNC(=O)COc1cccc(Nc2ncc(F)c(Nc3cc(C)ccc3Cl)n2)c1 [Compound R926840] | 12.2 | – |
| Oc1cccc(Nc2nc(Nc3cccc(-c4cc[nH]n4)c3)ncc2F)c1 [Compound R926841] | – | 3.28 |
| Oc1cccc(Nc2nc(Nc3cccc(-c4nnn[nH]4)c3)ncc2F)c1 [Compound R926842] | – | > 10 |
| Fc1cnc(Nc2cccc(-c3nnn[nH]3)c2)nc1Nc1ccc2c(c1)OCCO2 [Compound R926843] | – | > 10 |
| COc1ccc(Nc2ncc(F)c(Nc3ccc4c(c3)OCCO4)n2)c(C)c1 [Compound R926845] | – | > 10 |
| Oc1cccc(Nc2nc(Nc3cc(Br)cc(C(F)(F)F)c3)ncc2F)c1 [Compound R926846] | > 10 | – |
| NC(=O)Cn1c(=O)oc2ccc(Nc3ncc(F)c(Nc4ccc5c(c4)OCCO5)n3)cc21 [Compound R926847] | 11.8 | – |
| O=C(COc1cccc(Nc2ncc(F)c(Nc3ccc4c(c3)OCCO4)n2)c1)NC1CC1 [Compound R926848] | 1.72 | – |
| CNC(=O)COc1cccc(Nc2ncc(F)c(Nc3ccc(C#N)c(C)c3)n2)c1 [Compound R926851] | 3.09 | – |
| CNC(=O)COc1cccc(Nc2ncc(F)c(Nc3cccc(-c4nn[nH]n4)c3)n2)c1 [Compound R926855] | > 10 | – |
| COc1cc(Nc2ncc(F)c(Nc3cccc(O)c3)n2)c(OC)cc1Cl [Compound R926857] | – | > 10 |
| COc1cc(Nc2nc(Cl)ncc2F)c(OC)cc1Cl [Compound R926858] | – | > 10 |
| CNC(=O)COc1cccc(Nc2ncc(F)c(Nc3cc(OC)c(Cl)cc3OC)n2)c1 [Compound R926859] | > 10 | – |
| COc1cc(Nc2nc(Nc3cccc(O)c3)ncc2F)c(OC)cc1Cl [Compound R926860] | > 10 | – |

| Compound | IC50 [µM] | IC50 (Homo sapiens, Jurkat) [µM] |
| --- | --- | --- |
| CNC(=O)COc1cccc(Nc2ncc(F)c(Nc3cc(C(=O)OC)cc(C(F)(F)F)c3)n2)c1 [Compound R926862] | 7.75 | – |
| COC(=O)c1cc(Nc2ncc(F)c(Nc3cccc(O)c3)n2)cc(C(F)(F)F)c1 [Compound R926863] | – | > 10 |
| Oc1cccc(Nc2ncc(F)c(Nc3cccc(C4=NN(c5ccccc5)CO4)c3)n2)c1 [Compound R926866] | – | > 10 |
| Fc1cnc(Cl)nc1Nc1cccc(-c2nnc(-c3ccccc3)o2)c1 [Compound R926869] | – | > 10 |
| CNC(=O)COc1cccc(Nc2ncc(F)c(Nc3ccc(OC(F)(F)F)cc3)n2)c1 [Compound R926879] | 2.55 | – |
| CNC(=O)COc1cccc(Nc2ncc(F)c(Nc3ccc(C(F)(F)F)cc3)n2)c1 [Compound R926880] | 6.24 | – |
| CNC(=O)COc1cccc(Nc2ncc(F)c(Nc3ccc(Cl)c(C(F)(F)F)c3)n2)c1 [Compound R926881] | 11 | – |
| CNC(=O)COc1cccc(Nc2ncc(F)c(Nc3ccc4ncccc4c3)n2)c1 [Compound R926883] | > 10 | – |
| Oc1cccc(Nc2ncc(F)c(Nc3cccc(OC(F)(F)F)c3)n2)c1 [Compound R926885] | – | > 10 |
| CNC(=O)COc1cccc(Nc2ncc(F)c(Nc3ccc(OC)nc3)n2)c1 [Compound R926886] | 1.14 | – |
| COc1ccc(Nc2nc(Nc3cccc(O)c3)ncc2F)c(OC)n1 [Compound R926887] | – | 5.92 |
| Oc1cccc(Nc2nc(Nc3cc(Cl)c(O)c(Cl)c3)ncc2F)c1 [Compound R926890] | – | 11.3 |
| CNC(=O)COc1cccc(Nc2ncc(F)c(Nc3ccc(OC)c(F)c3)n2)c1 [Compound R926892] | 1.64 | – |
| Cc1cc(O)cc(N(c2ccc3c(c2)OCCO3)c2nc(N)ncc2F)c1 [Compound R926893] | – | > 10 |
| Fc1cc(Nc2ncc(F)c(Nc3ccc4c(c3)OCCO4)n2)cc(C(F)(F)F)c1 [Compound R926894] | – | > 10 |
| Cc1cc(Nc2ncc(F)c(Nc3ccc4c(c3)OCCO4)n2)cc(C(F)(F)F)c1 [Compound R926895] | – | > 10 |
| COc1ccc(C)c(Nc2ncc(F)c(Nc3ccc4c(c3)OCCO4)n2)c1 [Compound R926896] | – | > 10 |
| Cc1ccc(F)c(Nc2ncc(F)c(Nc3ccc4c(c3)OCCO4)n2)c1 [Compound R926897] | – | > 10 |
| Fc1cc(F)cc(Nc2ncc(F)c(Nc3ccc4c(c3)OCCO4)n2)c1 [Compound R926898] | – | > 10 |
| Fc1cnc(Nc2ccc(SC(F)(F)F)cc2)nc1Nc1ccc2c(c1)OCCO2 [Compound R926899] | – | > 10 |
| CNC(=O)COc1cccc(Nc2ncc(F)c(Nc3ccc(Cl)c(-c4nc5ccccc5s4)c3)n2)c1 [Compound R926900] | > 10 | – |
| CNC(=O)COc1cccc(Nc2ncc(F)c(Nc3ccc(C)c(OC)c3)n2)c1 [Compound R926902] | > 10 | – |
| COC(=O)c1cc2ccc(Nc3ncc(F)c(Nc4cccc(O)c4)n3)cc2[nH]1 [Compound R926903] | > 10 | – |
| CNC(=O)COc1cccc(Nc2ncc(F)c(Nc3ccc4cc(C(=O)OC)[nH]c4c3)n2)c1 [Compound R926904] | 1.36 | – |
| CCOC(=O)C1CCN(Cc2cccc(Nc3nc(Nc4cccc(OCC(=O)NC)c4)ncc3F)c2)CC1 [Compound R926905] | 6.49 | – |
| CCOC(=O)C(C)(C)Oc1cccc(Nc2ncc(F)c(Nc3cccc(O)c3)n2)c1 [Compound R926906] | > 10 | – |
